{"source": "patent US12415806B1", "about": "“Solid state forms” (AMGEN INC., priority 2019, dated 2025)", "key": {"[1]": {"experiment": "Solubility assessment", "assay_type": "physicochemical", "source_text": "(§1) Within the pharmaceutical research and development field, the investigation of a suitable solid-state form represents a crucial step. Investigating a solid-state form comprises several decisions, mainly the investigation of an anhydrous, salt or co-crystal form and the investigation of a polymorph of the respective anhydrous, salt or co-crystal. During a lead optimization program, several properties of research compounds are optimized, typically leading to one or a few candidates that continue into exploratory development programs. Typically, in the assessment and optimization of physical chemical parameters during lead optimization, the main focus is on solubility. […] Beyond the optimization of solubility, further physical chemical parameters, such as (1) melting point, (2) thermal behavior, (3) hygroscopicity, (4) crystal habit, (5) polymorphic behavior or physical stability, (6) impurity profile, and (7) chemical stability of the anhydrous or salt form, must be borne in mind when investigating the salt. The melting point of a drug, either as a free base, acid or salt form, should be higher than a certain threshold to allow processing steps such as drying or tabletting. The assessment of thermal behavior, which is typically done by thermogravimetry (TGA) and differential scanning calorimetry (DSC), also includes solid-solid phase transitions. […]"}, "[2]": {"tested_on": "KRAS^G12C tumors", "settings": "preclinical analyses, combination; cited from earlier work"}, "[3]": {"tested_on": "tumors", "settings": "first dosing cohorts; cited from earlier work"}, "[4]": {"tested_on": "KRAS^G12C tumors", "settings": "alone as well as in combination with immune-checkpoint inhibitors; cited from earlier work"}, "[5]": {"experiment": "Hygroscopicity (moisture uptake versus relative humidity)", "assay_type": "physicochemical", "source_text": "as §1, with “transitions. These may be either enantiotropic or monotropic and can be related to the conversion of one polymorph to another or one pseudo-polymorph to another pseudo-polymorph—e.g. a lower solvate or hydrate—or a true polymorph. Hygroscopicity plays a key role in the evaluation of solid-state forms, as this property is highly relevant for many process steps such as drying, storage, blending, granulation, to name but a few. Hygroscopicity can be investigated by dynamic vapor sorption (DVS). Basically, this technique yields information on the amount of moisture that is taken up by the compound at a certain relative humidity level.” for “transitions.”"}, "[6]": {"experiment": "Polymorph conversion upon heating or slurrying (thermodynamic stability of forms)", "assay_type": "physicochemical", "description": "Solutions of the compounds of the disclosure were prepared by adding enough solids to a given solvent so that excess solids were present. All forms described below can be obtained from various solvents, including, but not limited, to the specific solvents described in the Examples. The mixture was then agitated in a sealed vial at either ambient or elevated temperature. After a given amount of time, the solids were isolated by vacuum or centrifuge filtration and analyzed.\nThe crystalline anhydrous Form II and III described herein below convert to crystalline anhydrous Form I upon heating or slurrying.\nCrystalline anhydrous Form III melts at 180° C."}, "[7]": {"experiment": "Solid state physical and chemical stability on storage (HPLC, XRPD, DSC, TGA)", "assay_type": "physicochemical", "settings": "14 weeks at 25° C./60% RH, 40° C./75% RH, 40° C./ambient RH, and 60° C./ambient RH"}, "[8]": {"experiment": "Excipient compatibility study in 3 prototype blends", "assay_type": "physicochemical", "settings": "3 prototype blends stored for 4 weeks at 40° C./75% RH", "description": "(§2) Furthermore, crystalline anhydrous Form I was stable in an excipient compatibility study in 3 prototype blends that were stored for 4 weeks at 40° C./75% RH. Crystalline anhydrous Form I was also stable to ultraviolet and visible light in the solid state."}, "[9]": {"experiment": "Stability to ultraviolet and visible light in the solid state", "assay_type": "physicochemical", "description": "as §2"}}}
{"compound": "C=CC(=O)N1CCN(c2nc(=O)n(-c3c(C)ccnc3C(C)C)c3nc(-c4c(O)cccc4F)c(F)cc23)[C@@H](C)C1", "note": "(atropisomer, axis not shown) [Compound 1, 6-fluoro-7-(2-fluoro-6-hydroxyphenyl)-1-(4-methyl-2-(2-propanyl)-3-pyridinyl)-4-((2S)-2-methyl-4-(2-propenoyl)-1-piperazinyl)pyrido[2,3-d]pyrimidin-2 (1H)-one]", "values": [{"measurement": "solubility", "setting": "[1]", "value": "good solubility features"}]}
{"compound": "C=CC(=O)N1CCN(c2nc(=O)n(-c3c(C)ccnc3C(C)C)c3nc(-c4c(O)cccc4F)c(F)cc23)[C@@H](C)C1", "note": "[Compound 1, 6-fluoro-7-(2-fluoro-6-hydroxyphenyl)-1-(4-methyl-2-(2-propanyl)-3-pyridinyl)-4-((2S)-2-methyl-4-(2-propenoyl)-1-piperazinyl)pyrido[2,3-d]pyrimidin-2 (1H)-one]", "values": [{"measurement": "effect on anti-tumor efficacy of chemotherapy and targeted agents", "setting": "[2]", "value": "improved the anti-tumor efficacy of chemotherapy and targeted agents"}, {"measurement": "anti-tumor activity in clinical trials", "setting": "[3]", "value": "demonstrated anti-tumor activity"}, {"measurement": "tumor outcome in immune-competent mice", "setting": "[4]", "value": "produced durable cures"}]}
{"compound": "C=CC(=O)N1CCN(c2nc(=O)n(-c3c(C)ccnc3C(C)C)c3nc(-c4c(O)cccc4F)c(F)cc23)[C@@H](C)C1", "note": "[Form II, 6-fluoro-7-(2-fluoro-6-hydroxyphenyl)-1-(4-methyl-2-(2-propanyl)-3-pyridinyl)-4-((2S)-2-methyl-4-(2-propenoyl)-1-piperazinyl)pyrido[2,3-d]pyrimidin-2 (1H)-one]", "values": [{"measurement": "moisture absorbed", "setting": "[5]; between 0 and 90% RH at 25° C.", "value": "2-2.5 % wt"}, {"measurement": "form conversion", "setting": "[6]; slurrying in water at 90° C. for 1 hour", "value": "converts to crystalline anhydrous Form I"}, {"measurement": "form conversion", "setting": "[6]; upon heating and recrystallization at 193° C.", "value": "converts to crystalline anhydrous Form I"}]}
{"compound": "C=CC(=O)N1CCN(c2nc(=O)n(-c3c(C)ccnc3C(C)C)c3nc(-c4c(O)cccc4F)c(F)cc23)[C@@H](C)C1", "note": "[Form III, 6-fluoro-7-(2-fluoro-6-hydroxyphenyl)-1-(4-methyl-2-(2-propanyl)-3-pyridinyl)-4-((2S)-2-methyl-4-(2-propenoyl)-1-piperazinyl)pyrido[2,3-d]pyrimidin-2 (1H)-one]", "values": [{"measurement": "moisture absorbed", "setting": "[5]; between 0-95% RH at 25° C.", "value": 7.0, "unit": "% wt"}, {"measurement": "form conversion", "setting": "[6]; upon melting and recrystallization at 220° C.", "value": "converts to crystalline anhydrous Form I"}]}
{"compound": "C=CC(=O)N1CCN(c2nc(=O)n(-c3c(C)ccnc3C(C)C)c3nc(-c4c(O)cccc4F)c(F)cc23)[C@@H](C)C1", "note": "[Form I, 6-fluoro-7-(2-fluoro-6-hydroxyphenyl)-1-(4-methyl-2-(2-propanyl)-3-pyridinyl)-4-((2S)-2-methyl-4-(2-propenoyl)-1-piperazinyl)pyrido[2,3-d]pyrimidin-2 (1H)-one]", "values": [{"measurement": "moisture absorbed", "setting": "[5]; between 0 and 90% RH at 25° C.", "value": "0.5-1.0 % wt"}, {"measurement": "physical and chemical stability in the solid state (no degradation peaks by HPLC, no changes in XRPD, DSC, TGA)", "setting": "[7]", "value": "physically and chemically stable"}, {"measurement": "stability in excipient compatibility study", "setting": "[8]", "value": "stable"}, {"measurement": "stability to ultraviolet and visible light", "setting": "[9]", "value": "stable"}, {"measurement": "thermodynamic stability among polymorphs identified in the screening process", "setting": "[6]; polymorph and salt screen", "value": "most thermodynamically stable polymorph"}]}
